# Reference: patent US6492337B1, “Galactosylceramide, glucosylceramide, lactosylceramide, and specific catchers therefor for use in the prophylaxis or therapy of prediabetes, diabetes and/or associated complication” (A+ Science AB, priority 1997, dated 2002)
# Tests used:
# [1] = tested on: NOD mouse model of type 1 diabetes; test: Intrathymic injection in NOD mice, later diabetes incidence; assay type: in vivo
# Procedure: The NOD mouse model is an animal model of type 1 diabetes. The mice develop spontaneously diabetes within 200 days of life with an incidence of 50% or more. In the present study the animals were examined daily and once a week checked for glucosuria. They were diagnosed as diabetic if their blood glucose values was higher than 200 mg glucose per 100 ml. When diagnosed as diabetics the animals were sacrificed. Otherwise the remaining non-diabetic animals were sacrificed at the end 5 of the study after 200 days of age.
# Four groups of animals each containing between 30 and 40 animals were investigated: The animals were injected intrathymically when 3 weeks old. There was injected […] galactosylceramide in 100 μl vehicle (PBS). The control mice were treated with the 100 μl PBS alone. In another experiment liposome preparation of galactosylceramide was made using phosphatidylcholin and galactosylceramide. The control group was treated with phosphatidylcholin and PBS alone.
# [2] = tested on: human mononuclear cells (monocytes and T-cells); settings: compared to incubation with LPS and PHA without galactosylceramide; cited from earlier work
substance,measurement,setting,value
galactosylceramide,"mice that developed diabetes, two studies together","[1]; both studies pooled, 31 of 70 mice, PBS mice 57.4%",44.3%
same,time of diabetes development versus control mice,"[1]; first study, pure form",occurred later than among the control mice
same,mice that developed diabetes,"[1]; first study, pure form in PBS, intrathymic injection at 3 weeks old, followed to 200 days of age, 17 of 37 mice, PBS control 56.8%",45.9%
same,IL-6 production,[2],increased
same,TNF production,[2],increased
